Data reported in paper PMC10213809 (Cell Reports Medicine, 2023).
“Also recorded” adds a separate entry of the source.

Columns and labels:
CHIKV [1] = type: cell-based, Chikungunya virus; details: for inhibition of CHIKV, primary screen: HFF-1
WNV [2] = type: cell-based, West Nile virus; details: for infectivity against WNV at the highest non-toxic dose: 100 μg/mL; for infectivity against WNV at the highest non-toxic dose / inhibition of WNV, primary screen: HFF-1; for antiviral activity (inhibition) against WNV, primary screen: HFF-1, moderate antiviral activity
ZIKV = type: cell-based, Zika virus; details: HFF-1; for infectivity against ZIKV at the highest non-toxic dose: 100 μg/mL
CHIKV [3] = assay: Viral-mediated cytopathic effect / cell death in infected HFF-1 cells; type: cell-based, Chikungunya virus; details: HFF-1, 48 hpi, effective concentration
[4] = tested on: arboviruses (CHIKV, WNV, ZIKV); assay: qRT-PCR of viral genome replication in drug-treated fibroblasts at 48 hpi; type: cell-based
[5] = tested on: TBK-IRF3 signaling cascade; type: cell-based, human; details: HFF-1, pretreatment, uninfected cells
RSV = type: cell-based, respiratory syncytial virus
CHIKV [6] = type: cell-based, Chikungunya virus
WNV [7] = type: cell-based, West Nile virus
CHIKV [8] = assay: RNA sequencing of drug-treated CHIKV-infected HFF-1 cells; type: cell-based, Chikungunya virus; details: for viral genome reads of the total reads: RNA sequencing
HFF-1 cells [9] = assay: NAD/NADH-Glo assay, intracellular NADH; type: cell-based, human; details: HFF-1, 48 hpi
HFF-1 cells [10] = assay: Intracellular ATP level; type: cell-based, human; details: CHIKV-infected HFF-1, 48 hpi
CHIKV (strain 181/25) [11] = assay: Histopathology and IHC of CHIKV-infected mouse footpad; type: in vivo
CHIKV (strain 181/25) [12] = assay: CHIKV arthritis mouse model
CHIKV [13] = type: cell-based, Chikungunya virus; details: read-out: IC50, antiviral activity against CHIKV; human fibroblasts (HFF-1), eight-dose response
[14] = tested on: STING-IRF3 and STING-NF-κB pathways; type: cell-based, human; details: HFF-1, 2 h post-stimulation
CHIKV [15] = type: cell-based, Chikungunya virus; remark: listed apart in the source

In the case of `Nc1nc2c(ncn2[C@@H]2O[C@@H]3COP(=O)(O)O[C@H]4[C@@H](O)[C@H](n5cnc6c(N)ncnc65)O[C@@H]4COP(=O)(O)O[C@@H]2[C@@H]3O)c(=O)[nH]1` [2'3'-cGAMP, 2′,3′-cGAMP], the “infectivity against CHIKV at the highest non-toxic dose” value (CHIKV [1]) is reported as “below-detectable infectivity”, the “infectivity against WNV at the highest non-toxic dose” value (WNV [2]) is reported as “below-detectable infectivity” and the “infectivity against ZIKV at the highest non-toxic dose” value (ZIKV) is reported as “below-detectable infectivity”. For the same molecule, the “viral-mediated cytopathic effect (CPE)” value (CHIKV [3]) was “prevented CPE”, the “viral genome replication (qRT-PCR)” value [4] was “significantly reduced” and the “phosphorylation of IRF3 (western blot)” value [5] was “induced phosphorylation of IRF3”.

With `Nc1nc2c(ncn2[C@@H]2O[C@@H]3COP(=O)(O)O[C@H]4[C@@H](O)[C@H](n5cnc6c(N)ncnc65)O[C@@H]4COP(=O)(O)O[C@H]3[C@H]2O)c(=O)[nH]1` [3'3'-cGAMP, 3′,3′-cGAMP] the “infectivity against CHIKV at the highest non-toxic dose” value (CHIKV [1]) was “below-detectable infectivity”, the “infectivity against WNV at the highest non-toxic dose” value (WNV [2]) was “below-detectable infectivity” and the “infectivity against ZIKV at the highest non-toxic dose” value (ZIKV) was “below-detectable infectivity”. For the same molecule, the “viral-mediated cytopathic effect (CPE)” value (CHIKV [3]) was “prevented CPE” and the “phosphorylation of IRF3 (western blot)” value [5] was “induced phosphorylation of IRF3”.

In the case of `O=c1cnn([C@@H]2O[C@H](CO)[C@@H](O)[C@H]2O)c(=O)[nH]1` [6-azauridine, 6-Azauridine], the “inhibition of RSV infection” value (RSV) is reported as “efficient inhibition”.

In the case of `CCCCCCCCCCCCCCCC(=O)OCC(CSC[C@H](N)C(=O)N[C@@H](CO)C(=O)N[C@@H](CCCCN)C(=O)N[C@@H](CCCCN)C(=O)N[C@@H](CCCCN)C(=O)N[C@@H](CCCCN)C(=O)Nc1ccc(Cn2c(O)nc3c(N)nc(NCCCC)nc32)cc1)OC(=O)CCCCCCCCCCCCCCC` (some centres unmarked) [Adilipoline(CL413)], the “effect on viral replication, primary screen (Figure 1C)” value (CHIKV [1]) is reported as “enhanced viral replication”.

In the case of `CC(C)Cn1cnc2c(N)nc3ccccc3c21` [Imiquimod], the “inhibition of CHIKV, primary screen” value (CHIKV [1]) is reported as “not against CHIKV”, the “inhibition of WNV, primary screen” value (WNV [2]) is reported as “potent inhibition” and the “antiviral activity (inhibition) against WNV, primary screen” value (shortened to “antiviral activity (inhibition)”) (WNV [2]) is reported as greater than 50%. For the same molecule, the “inhibition of ZIKV, primary screen” value (ZIKV) was “potent inhibition” and the “viral genome replication (qRT-PCR)” value [4] was “significantly reduced”.

For `CC(=O)N[C@@H]1[C@@H](O[C@H](C)C(=O)N[C@@H](C)C(=O)N[C@H](CCC(=O)O)C(N)=O)[C@H](O)[C@@H](CO)O[C@H]1O` [MDP], the “inhibition of CHIKV, primary screen” value (CHIKV [1]) was “not against CHIKV”, the “inhibition of WNV, primary screen” value (WNV [2]) was “potent inhibition” and the “inhibition of ZIKV, primary screen” value (ZIKV) was “potent inhibition”.

With `CCC(CC)COC(=O)[C@H](C)N[P@](=O)(OC[C@H]1O[C@@](C#N)(c2ccc3c(N)ncnn23)[C@H](O)[C@@H]1O)Oc1ccccc1` [Remdesivir] the “antiviral activity against CHIKV” value (CHIKV [6]) was “no effective antiviral activity; also recorded: not active”, the “antiviral activity against WNV” value (WNV [7]) was “no effective antiviral activity; also recorded: not active” and the “inhibition of RSV infection” value (RSV) was “efficient inhibition”.

In the case of `Nc1ncnc2c1ncn2[C@@H]1O[C@@H]2COP(=O)(O)O[C@H]3[C@@H](O)[C@H](n4cnc5c(N)ncnc54)O[C@@H]3COP(=O)(O)O[C@H]2[C@H]1O` [c-di-AMP], the “antiviral activity (inhibition)” value (WNV [2]) is reported as greater than 50%.

`Nc1nc2c(ncn2[C@@H]2O[C@@H]3COP(=O)(O)O[C@H]4[C@@H](O)[C@H](n5cnc6c(=O)[nH]c(N)nc65)O[C@@H]4COP(=O)(O)O[C@H]3[C@H]2O)c(=O)[nH]1` [c-di-GMP] was tested, and the “effect on viral replication, primary screen (Figure 1C)” value (CHIKV [1]) was “enhanced viral replication”, the “inhibition of CHIKV, primary screen” value (CHIKV [1]) was “not against CHIKV” and the “inhibition of WNV, primary screen” value (WNV [2]) was “potent inhibition”. The “inhibition of ZIKV, primary screen” value (ZIKV) was “potent inhibition”.

With `Nc1ncnc2c1ncn2[C@@H]1O[C@@H]2COP(=O)(O)O[C@H]3[C@@H](O)[C@H](n4cnc5c(=O)[nH]cnc54)O[C@@H]3COP(=O)(O)O[C@H]2[C@H]1O` [cAIMP] the “antiviral activity, post-treatment of CHIKV-infected cells” value (CHIKV [1]) was “potent antiviral activity”, the “infectivity against CHIKV at the highest non-toxic dose” value (CHIKV [1]) was “below-detectable infectivity” and the “infectivity against WNV at the highest non-toxic dose” value (WNV [2]) was “below-detectable infectivity”. The “infectivity against ZIKV at the highest non-toxic dose” value (ZIKV) was “below-detectable infectivity”, the “viral-mediated cytopathic effect (CPE)” value (CHIKV [3]) was “prevented CPE” and the “viral genome replication (qRT-PCR)” value [4] was “significantly reduced”. The “phosphorylation of IRF3 (western blot)” value [5] was “induced phosphorylation of IRF3”, the “HEATR9 expression induced by CHIKV” value (CHIKV [8]; CHIKV-infected HFF-1) was “reversed the induction” and the “reduction of viral gene expression compared with untreated infected cells” value (CHIKV [8]; CHIKV-infected HFF-1, 24 hpi) was “about 880 fold”. For the same molecule, the “viral genome reads of the total reads” value (CHIKV [8]; CHIKV-infected HFF-1, 24 hpi) was 0.1%, the “nicotinamide adenine dinucleotide (NADH) levels” value (HFF-1 cells [9]) was “increased” and the “intracellular ATP” value (HFF-1 cells [10]) was “prevented ATP depletion”. For the same molecule, the “inflammatory cellular infiltration, therapeutic” value (CHIKV (strain 181/25) [11]; cAIMP 10 mg/kg i.p. at 6 or 12 hpi, left footpad) was “reducing”, the “pathological changes and left-rear footpad swelling (histopathology)” value (CHIKV (strain 181/25) [11]; cAIMP pretreatment, 7 dpi) was “prevented” and the “volume of footpad swelling, chronic long-term follow-up” value (CHIKV (strain 181/25) [12]; 14-month-old mice, cAIMP pretreatment, up to 2 months post-infection) was “significantly reduced”. The “virus replication, chronic long-term follow-up” value (CHIKV (strain 181/25) [12]; 14-month-old mice, cAIMP pretreatment, up to 2 months post-infection (59 dpi)) was “significantly reduced”, the “inflammatory gene expression, therapeutic” value (CHIKV (strain 181/25) [12]; mouse, cAIMP 10 mg/kg i.p. at 6 or 12 hpi, left footpad) was “reducing” and the “viral replication, therapeutic” value (CHIKV (strain 181/25) [12]; mouse, cAIMP 10 mg/kg i.p. single dose at 6 or 12 hpi) was “reducing”. For the same molecule, the “footpad swelling, therapeutic” value (CHIKV (strain 181/25) [12]; mouse, cAIMP 10 mg/kg i.p. single dose at 6 or 12 hpi, up to 21 dpi) was “protected the animals from significant footpad swelling”, the “CHIKV-mediated footpad swelling, prophylactic” value (CHIKV (strain 181/25) [12]; mouse, cAIMP 10 mg/kg i.p. single dose at day -1, observed 7 days) was “significantly prevented” and the body weight changes (CHIKV (strain 181/25) [12]; mouse, cAIMP at 6 or 12 h post-CHIKV infection) was “No significant body weight changes”. For the same molecule, the “reduction in viral genome replication in left-rear footpad (qRT-PCR)” value (CHIKV (strain 181/25) [12]; mouse, cAIMP pretreatment 10 mg/kg i.p., day 3) was 2 log and the “expression of inflammatory genes Ccl2, Il-6 and Il-10 in left footpad” value (CHIKV (strain 181/25) [12]; mouse, cAIMP-pretreated, 7 dpi) was “significant downregulation”.

In the case of `CCn1nc(C)cc1C(=O)Nc1nc2cc(C(N)=O)cc(OC)c2n1C/C=C/Cn1c(NC(=O)c2cc(C)nn2CC)nc2cc(C(N)=O)cc(OCCCN3CCOCC3)c21` [diABZI], the “antiviral activity, post-treatment of CHIKV-infected cells” value (CHIKV [1]) is reported as “potent antiviral activity”, the IC50 (CHIKV [13]) is reported as 10.1 nM and the “viral-mediated cytopathic effect (CPE)” value (CHIKV [3]) is reported as “prevented CPE”. For the same molecule, the “viral genome replication (qRT-PCR)” value [4] was “significantly reduced” and the “phosphorylation of IRF3 (western blot)” value [5] was “induced phosphorylation of IRF3”.

For Scleroglucan, the “antiviral activity (inhibition)” value (WNV [2]) was greater than 50%, the “viral-mediated cytopathic effect (CPE)” value (CHIKV [3]) was “prevented CPE” and the “phosphorylation of IRF3 (Ser386)” value [14] was “only a few cells have a cytoplasmic form of phospho-IRF3”. The “phosphorylation of STING (Ser366)” value [14] was “did not have detectable levels”, the “viral genome replication (qRT-PCR)” value [4] was “significantly reduced” and the “phosphorylation of IRF3 (western blot)” value [5] was “only the basal level”. For the same molecule, the “viral genome reads of the total reads” value (CHIKV [8]; CHIKV-infected HFF-1, 24 hpi) was 63% and the “CHIKV productive infection / replication in PSC-CMs” value (CHIKV [15]) was “inhibited; also recorded: moderately reducing”.
